The structures appear in SMILES notation. pKd: −log10 of the molar value. Active and inactive are the calls of the source. The rule behind the calls is not given here.

The results in this text go back to ChEMBL document CHEMBL4350961, “Discovery of Pyrrolo[3,2- d]pyrimidin-4-one Derivatives as a New Class of Potent and Cell-Active Inhibitors of P300/CBP-Associated Factor Bromodomain” (J Med Chem, 2019).

The target of experiment [1] is Tyrosine-protein kinase Fgr (Homo sapiens) (UniProt P09769). The experiment in a line: Inhibition of recombinant human FGR (2 to end residues) at 10 uM using poly(Glu, Tyr) 4:1 as substrate measured after 40 mins in presence of [gamma33P]ATP by scintillation counting method.
Chain of Tyrosine-protein kinase Fgr (Homo sapiens) (P09769 2-529 limits assumed): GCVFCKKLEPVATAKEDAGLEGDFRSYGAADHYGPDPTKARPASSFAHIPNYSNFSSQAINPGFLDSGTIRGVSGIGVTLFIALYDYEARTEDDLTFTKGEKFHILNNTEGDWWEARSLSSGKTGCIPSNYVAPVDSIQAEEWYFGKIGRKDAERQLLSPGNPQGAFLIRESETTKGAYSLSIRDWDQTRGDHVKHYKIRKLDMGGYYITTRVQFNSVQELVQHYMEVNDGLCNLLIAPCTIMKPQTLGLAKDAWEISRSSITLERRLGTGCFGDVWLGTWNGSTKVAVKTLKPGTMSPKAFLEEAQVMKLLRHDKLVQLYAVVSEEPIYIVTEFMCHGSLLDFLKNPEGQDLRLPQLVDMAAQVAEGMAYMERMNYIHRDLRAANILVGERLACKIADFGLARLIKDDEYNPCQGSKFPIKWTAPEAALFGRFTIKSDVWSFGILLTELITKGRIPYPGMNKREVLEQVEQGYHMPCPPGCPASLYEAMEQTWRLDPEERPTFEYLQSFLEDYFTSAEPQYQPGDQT
Experiment [2] relates to Eukaryotic elongation factor 2 kinase (Homo sapiens), O00418 [H23R]. As to the kind of experiment: Inhibition of recombinant human EEF2K H23R mutant (2 to end residues) at 10 uM using RKKFGESEKTKTKEFL as substrate measured after 40 mins in presence of [gamma33P]ATP by scintillation counting method.
Experiment [3] deals with Ribosomal protein S6 kinase alpha-1 (Rattus norvegicus), Q63531 [S637N,G697A]. As to the kind of experiment: Inhibition of recombinant full-length rat Rsk1 S637N/G697A mutant at 10 uM using KKKNRTLSVA as substrate measured after 40 mins in presence of [gamma33P]ATP by scintillation counting method.
Chain of Ribosomal protein S6 kinase alpha-1 (Rattus norvegicus), Q63531 [S637N,G697A] (Q63531 whole entry S637N/G697A): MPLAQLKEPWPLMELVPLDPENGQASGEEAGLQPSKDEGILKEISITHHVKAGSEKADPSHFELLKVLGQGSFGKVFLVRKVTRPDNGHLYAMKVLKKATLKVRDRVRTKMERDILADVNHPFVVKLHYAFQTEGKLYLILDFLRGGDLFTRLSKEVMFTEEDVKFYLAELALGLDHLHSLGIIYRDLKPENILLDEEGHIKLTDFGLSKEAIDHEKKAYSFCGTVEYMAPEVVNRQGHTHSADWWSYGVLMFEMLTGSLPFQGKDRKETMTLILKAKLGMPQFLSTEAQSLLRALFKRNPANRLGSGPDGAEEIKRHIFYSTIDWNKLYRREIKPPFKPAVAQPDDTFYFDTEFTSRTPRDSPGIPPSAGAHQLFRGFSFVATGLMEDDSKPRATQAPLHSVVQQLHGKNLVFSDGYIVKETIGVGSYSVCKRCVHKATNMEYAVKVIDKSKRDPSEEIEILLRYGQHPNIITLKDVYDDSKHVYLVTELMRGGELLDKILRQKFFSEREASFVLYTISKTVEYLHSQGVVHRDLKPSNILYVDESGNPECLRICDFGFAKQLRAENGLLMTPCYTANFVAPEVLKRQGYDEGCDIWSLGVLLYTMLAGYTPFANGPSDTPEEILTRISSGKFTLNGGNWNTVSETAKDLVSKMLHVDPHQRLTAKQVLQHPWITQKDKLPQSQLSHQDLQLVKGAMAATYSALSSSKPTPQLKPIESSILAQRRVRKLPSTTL
Experiment [4] addresses Protein kinase C delta type (Homo sapiens) (UniProt Q05655). As to the kind of experiment: Inhibition of recombinant human PKCdelta (2 to end residues) at 10 uM using ERMRPRKRQGSVRRRV as substrate measured after 40 mins in presence of [gamma33P]ATP by scintillation counting method.
In experiment [5] the target is Serine/threonine-protein kinase ULK1 (Homo sapiens) (UniProt O75385). The experiment in a line: Inhibition of human ULK1 (1 to 314 residues) using casein as substrate measured after 40 mins in presence of [gamma33P]ATP by scintillation counting method.
Chain of Serine/threonine-protein kinase ULK1 (Homo sapiens) (O75385 whole entry, the tested form may be a part): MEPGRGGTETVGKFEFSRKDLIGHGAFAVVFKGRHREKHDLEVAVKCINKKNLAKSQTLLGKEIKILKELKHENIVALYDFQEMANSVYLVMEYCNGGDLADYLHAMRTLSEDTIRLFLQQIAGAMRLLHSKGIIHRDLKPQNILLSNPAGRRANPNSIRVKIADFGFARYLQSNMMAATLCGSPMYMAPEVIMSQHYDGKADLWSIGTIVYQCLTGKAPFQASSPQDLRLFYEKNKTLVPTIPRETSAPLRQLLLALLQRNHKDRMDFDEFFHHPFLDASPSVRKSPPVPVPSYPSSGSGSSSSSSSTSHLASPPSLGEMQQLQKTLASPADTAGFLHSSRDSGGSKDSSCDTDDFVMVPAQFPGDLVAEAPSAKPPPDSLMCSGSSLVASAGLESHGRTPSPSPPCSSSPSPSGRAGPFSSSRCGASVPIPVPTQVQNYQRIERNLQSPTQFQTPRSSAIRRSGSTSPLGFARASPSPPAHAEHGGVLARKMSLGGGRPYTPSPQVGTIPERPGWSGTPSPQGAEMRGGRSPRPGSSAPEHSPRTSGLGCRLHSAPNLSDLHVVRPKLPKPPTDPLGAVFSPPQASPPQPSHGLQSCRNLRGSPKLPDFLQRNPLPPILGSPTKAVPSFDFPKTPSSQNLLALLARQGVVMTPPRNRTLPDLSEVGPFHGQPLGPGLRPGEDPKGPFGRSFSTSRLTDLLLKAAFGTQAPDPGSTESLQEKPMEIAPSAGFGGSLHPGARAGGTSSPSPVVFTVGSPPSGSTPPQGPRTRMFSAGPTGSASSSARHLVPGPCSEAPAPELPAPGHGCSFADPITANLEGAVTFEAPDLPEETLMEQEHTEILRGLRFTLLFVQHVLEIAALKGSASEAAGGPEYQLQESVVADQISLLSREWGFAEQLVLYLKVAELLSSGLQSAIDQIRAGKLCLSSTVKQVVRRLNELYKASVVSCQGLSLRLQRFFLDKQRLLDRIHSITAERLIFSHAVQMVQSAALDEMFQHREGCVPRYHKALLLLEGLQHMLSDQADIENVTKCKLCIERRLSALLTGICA
Experiment [6] deals with Calcium/calmodulin-dependent protein kinase kinase 1 (Homo sapiens) (UniProt Q8N5S9). As to the kind of experiment: Inhibition of recombinant full-length human CAMKk1 at 10 uM using calmodulin as substrate measured after 40 mins in presence of [gamma33P]ATP by scintillation counting method.
Experiment [7] deals with Protein kinase C beta type (Homo sapiens) (UniProt P05771). The experiment in a line: Inhibition of recombinant human PKCbeta2 (2 to end residues) at 10 uM using histone H1 as substrate measured after 40 mins in presence of [gamma33P]ATP by scintillation counting method.
Chain of Protein kinase C beta type (Homo sapiens) (P05771 2-671 limits assumed): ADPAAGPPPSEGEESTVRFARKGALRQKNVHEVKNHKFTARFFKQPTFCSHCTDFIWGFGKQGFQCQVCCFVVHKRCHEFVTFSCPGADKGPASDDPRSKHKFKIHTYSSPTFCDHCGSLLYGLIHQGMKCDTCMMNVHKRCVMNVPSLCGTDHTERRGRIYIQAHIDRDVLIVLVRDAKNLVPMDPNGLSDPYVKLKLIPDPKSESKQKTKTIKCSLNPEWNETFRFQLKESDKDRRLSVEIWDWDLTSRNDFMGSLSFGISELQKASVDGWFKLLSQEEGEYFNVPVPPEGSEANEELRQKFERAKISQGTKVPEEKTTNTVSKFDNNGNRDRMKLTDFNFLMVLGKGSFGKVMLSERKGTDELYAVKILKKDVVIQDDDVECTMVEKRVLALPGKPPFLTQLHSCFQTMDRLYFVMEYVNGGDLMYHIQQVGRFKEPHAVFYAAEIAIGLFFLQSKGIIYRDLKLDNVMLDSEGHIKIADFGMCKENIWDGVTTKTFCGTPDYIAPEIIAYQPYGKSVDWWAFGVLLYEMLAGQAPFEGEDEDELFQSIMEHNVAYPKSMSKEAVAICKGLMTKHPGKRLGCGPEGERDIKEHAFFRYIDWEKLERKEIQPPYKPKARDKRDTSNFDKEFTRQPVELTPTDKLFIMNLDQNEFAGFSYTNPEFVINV
Experiment [8] deals with Cyclin-dependent kinase 2/cyclin E1 (Homo sapiens) (UniProt P24864+P24941). As to the kind of experiment: Inhibition of recombinant full-length human CDK2/cyclinE at 10 uM using histone H1 as substrate measured after 40 mins in presence of [gamma33P]ATP by scintillation counting method. The format is protein-complex assay.
In experiment [9] the target is Histone acetyltransferase KAT2A (Homo sapiens, UniProt Q92830). The experiment in a line: Binding affinity to human N-terminal His-tagged GCN5 by isothermal titration calorimetry. On the technique in general: ITC needs no label: the signal is the heat of the interaction.
Experiment [10] deals with Insulin receptor (Homo sapiens) (UniProt P06213). The experiment in a line: Inhibition of recombinant human activated IR (1005 to 1310 residues) at 10 uM using KKKSPGEYVNIEFG as substrate measured after 40 mins in presence of [gamma33P]ATP by scintillation counting method.
The target of experiment [11] is TGF-beta receptor type-2 (Homo sapiens) (UniProt P37173). As to the kind of experiment: Inhibition of human TGFBR2 (188 to end residues) using myelin basic protein as substrate measured after 120 mins in presence of [gamma33P]ATP by scintillation counting method.
Experiment [12] deals with PI3-kinase p110-alpha/p85-alpha (Homo sapiens), P27986+P42336 [E545K]. As to the kind of experiment: Inhibition of recombinant full-length human PI3K p110alpha/p85alpha E545K mutant at 10 uM using phosphatidylinositol-4, 5-bisphosphate as substrate measured after 40 mins by fluorescence assay. The format is protein-complex assay.
The target in experiment [13] is Serine/threonine-protein kinase PAK 3 (Homo sapiens) (UniProt O75914). The experiment in a line: Inhibition of recombinant full-length human PAK3 at 10 uM using RRRLSFAEPG as substrate measured after 40 mins in presence of [gamma33P]ATP by scintillation counting method.
The target in experiment [14] is ALK tyrosine kinase receptor (Homo sapiens) (UniProt Q9UM73). The experiment in a line: Inhibition of recombinant human ALK (1058 to end residues) at 10 uM using KKKSPGEYVNIEF as substrate measured after 40 mins in presence of [gamma33P]ATP by scintillation counting method.
The target in experiment [15] is Rhodopsin kinase GRK7 (Homo sapiens) (UniProt Q8WTQ7). As to the kind of experiment: Inhibition of recombinant full-length human GRK7 at 10 uM using casein as substrate measured after 40 mins in presence of [gamma33P]ATP by scintillation counting method.
In experiment [16] the target is Inhibitor of nuclear factor kappa-B kinase subunit beta (Homo sapiens) (UniProt O14920). As to the kind of experiment: Inhibition of recombinant full-length human IKKbeta at 10 uM using peptide substrate measured after 40 mins in presence of [gamma33P]ATP by scintillation counting method.
The test system of experiment [17] is Phosphorylase b kinase gamma catalytic chain, liver/testis isoform (Homo sapiens), P15735 [F290L]. The experiment in a line: Inhibition of recombinant human PhKgamma2 F290L mutant (1 to 301 residues) at 10 uM using KKLNRTLSFAEPG as substrate measured after 40 mins in presence of [gamma33P]ATP by scintillation counting method.
Chain of Phosphorylase b kinase gamma catalytic chain, liver/testis isoform (Homo sapiens), P15735 [F290L] (P15735 whole entry F290L, the tested form may be a part, canonical isoform): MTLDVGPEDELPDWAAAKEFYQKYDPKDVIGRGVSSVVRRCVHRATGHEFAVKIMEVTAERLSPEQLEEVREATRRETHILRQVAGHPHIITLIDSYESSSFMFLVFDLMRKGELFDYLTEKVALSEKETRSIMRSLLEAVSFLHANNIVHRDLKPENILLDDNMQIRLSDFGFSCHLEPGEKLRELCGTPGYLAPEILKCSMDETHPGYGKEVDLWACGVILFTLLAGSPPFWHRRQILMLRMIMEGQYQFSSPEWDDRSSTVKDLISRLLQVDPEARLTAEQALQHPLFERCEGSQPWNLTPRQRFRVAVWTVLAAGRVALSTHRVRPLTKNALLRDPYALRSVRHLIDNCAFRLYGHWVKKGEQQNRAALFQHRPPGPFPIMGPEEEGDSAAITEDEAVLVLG
In experiment [18] the test system is Tyrosine-protein kinase ABL1 (Homo sapiens), P00519 [Y253F]. As to the kind of experiment: Inhibition of recombinant human ABL Y253F mutant (27 to end residues) at 10 uM using EAIYAAPFAKKK as substrate measured after 40 mins in presence of [gamma33P]ATP by scintillation counting method.
Experiment [19] deals with Epidermal growth factor receptor (Homo sapiens), P00533 [L858R]. The experiment in a line: Inhibition of recombinant human EGFR L858R mutant (696 to end residues) at 10 uM using poly(Glu, Tyr) 4:1 as substrate measured after 40 mins in presence of [gamma33P]ATP by scintillation counting method.
Experiment [20] is filed under the species Homo sapiens. The experiment in a line: Inhibition of recombinant human MAPKAPK2 A399G mutant (46 to end residues) at 10 uM using KKLNRTLSVA as substrate measured after 40 mins in presence of [gamma33P]ATP by scintillation counting method.
Experiment [21] concerns the target Serine/threonine-protein kinase Nek1 (Homo sapiens) (UniProt Q96PY6). As to the kind of experiment: Inhibition of recombinant human NEK1 (1 to 505 residues) at 10 uM using RLGRDKYKTLRQIRQ as substrate measured after 40 mins in presence of [gamma33P]ATP by scintillation counting method.
Experiment [22] addresses Tyrosine-protein kinase HCK (Homo sapiens) (UniProt P08631). The experiment in a line: Inhibition of recombinant human HCK (230 to 497 residues) at 10 uM using Cdc2 peptide as substrate measured after 40 mins in presence of [gamma33P]ATP by scintillation counting method.
Experiment [23] addresses Inhibitor of nuclear factor kappa-B kinase subunit alpha (Homo sapiens) (UniProt O15111). The experiment in a line: Inhibition of recombinant full-length human IKKalpha (959 to end residues) at 10 uM using peptide substrate measured after 40 mins in presence of [gamma33P]ATP by scintillation counting method.
Experiment [24] has as its target Phosphatidylinositol 4-phosphate 5-kinase type-1 gamma (Homo sapiens) (UniProt O60331). The experiment in a line: Inhibition of recombinant full-length human PIP5K1gamma at 10 uM using phosphatidylinositol 4-phosphate as substrate measured after 40 mins by HTRF assay. (TR-FRET usually uses a lanthanide donor and a delayed reading to cut background.)

Chain of Inhibitor of nuclear factor kappa-B kinase subunit alpha (Homo sapiens) (O15111 whole entry): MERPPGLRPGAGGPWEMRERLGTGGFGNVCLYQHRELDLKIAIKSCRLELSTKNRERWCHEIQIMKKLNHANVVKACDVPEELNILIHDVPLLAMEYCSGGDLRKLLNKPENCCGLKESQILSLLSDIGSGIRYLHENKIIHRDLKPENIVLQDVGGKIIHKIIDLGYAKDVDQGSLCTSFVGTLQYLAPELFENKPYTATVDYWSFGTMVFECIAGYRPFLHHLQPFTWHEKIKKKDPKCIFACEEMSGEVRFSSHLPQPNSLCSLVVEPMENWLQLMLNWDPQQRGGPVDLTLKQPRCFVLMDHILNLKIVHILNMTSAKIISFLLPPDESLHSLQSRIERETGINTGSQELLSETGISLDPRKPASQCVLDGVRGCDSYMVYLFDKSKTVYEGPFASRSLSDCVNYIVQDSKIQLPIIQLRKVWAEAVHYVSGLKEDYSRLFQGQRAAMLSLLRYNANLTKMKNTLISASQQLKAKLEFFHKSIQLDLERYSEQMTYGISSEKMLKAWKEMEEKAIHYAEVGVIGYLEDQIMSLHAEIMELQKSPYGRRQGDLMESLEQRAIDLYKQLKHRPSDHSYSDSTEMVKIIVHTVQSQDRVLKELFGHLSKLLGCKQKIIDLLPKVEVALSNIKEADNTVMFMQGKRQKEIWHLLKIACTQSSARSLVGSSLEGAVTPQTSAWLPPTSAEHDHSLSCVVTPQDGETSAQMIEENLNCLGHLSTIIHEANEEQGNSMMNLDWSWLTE
Chain of Protein kinase C delta type (Homo sapiens) (Q05655 whole entry, looked up, the tested form may be a part): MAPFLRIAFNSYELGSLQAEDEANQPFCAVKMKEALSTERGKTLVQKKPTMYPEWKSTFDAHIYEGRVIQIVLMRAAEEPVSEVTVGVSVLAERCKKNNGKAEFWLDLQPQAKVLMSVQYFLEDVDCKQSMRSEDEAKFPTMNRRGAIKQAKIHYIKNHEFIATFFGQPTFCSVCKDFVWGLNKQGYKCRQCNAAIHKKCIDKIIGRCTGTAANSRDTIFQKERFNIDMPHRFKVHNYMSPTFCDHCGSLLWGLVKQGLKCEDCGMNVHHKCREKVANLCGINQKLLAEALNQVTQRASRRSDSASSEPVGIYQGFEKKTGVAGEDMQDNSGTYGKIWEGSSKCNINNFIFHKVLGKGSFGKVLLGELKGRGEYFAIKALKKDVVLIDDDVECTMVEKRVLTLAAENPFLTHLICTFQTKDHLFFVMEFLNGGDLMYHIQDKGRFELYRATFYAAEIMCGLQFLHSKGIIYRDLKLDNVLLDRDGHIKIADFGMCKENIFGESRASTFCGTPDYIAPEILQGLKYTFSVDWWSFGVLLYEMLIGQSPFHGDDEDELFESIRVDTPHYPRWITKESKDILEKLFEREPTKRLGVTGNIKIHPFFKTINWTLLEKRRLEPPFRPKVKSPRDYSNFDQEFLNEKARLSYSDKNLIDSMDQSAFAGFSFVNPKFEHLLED

By pKd is commonly meant −log10 of the Kd, conventionally taken in molar units. `CN1C[C@H](Nc2nc3cc[nH]c3c(=O)n2C)C[C@H](c2ccc3c(c2)OCCO3)C1`: the inhibition entry in [1], in experiment [2], in experiment [3], in [4], in experiment [5] and in experiment [6] was “inactive” each time. In addition, the inhibition result in [7], in experiment [8], in experiment [10], in [11], in experiment [12] and in experiment [13] was “inactive” each time. The inhibition result in experiment [14], in experiment [15], in [16], in [17], in [18] and in experiment [19] was “inactive” throughout. The inhibition result in experiment [20], in experiment [21], in experiment [22], in [23] and in experiment [24] was “inactive” throughout. The pKd in [9] was 6.98.
